Measured values from paper PMC7311426, “An amphipathic peptide with antibiotic activity against multidrug-resistant Gram-negative bacteria” (Nature Communications, 2020).
≈ marks a conversion by molar mass, not a printed value. Read-outs that look alike come from different tables or passages of the source. Residues, ends and D or L forms follow the SMILES beside them.

Legend:
E. coli AID#172 = assay type: in vivo, E. coli in NMRI mice
Procedure: Peritonitis and UTI murine models were performed at the Department of Microbiology & Infection Control, Statens Serum Institute, Copenhagen, Denmark, under approval by the National Committee of Animal Ethics, Denmark, and adhered to the standards of EU Directive 2010/63/EU. The mouse pneumonia model was performed by Evotec Ltd, United Kingdom, under UK Home Office Licenses and with local ethical committee clearance. All animal studies were contracted by Adenium Biotech ApS.
Peptides were prepared in Ringer’s acetate pH 6.0 (vehicle) at 34 mg mL^−1. Comparator antibiotics included meropenem (Meronem®, AstraZeneca), polymyxin B sulfate (Sigma) and tobramycin (Novartis).
The E. coli peritonitis in vivo model was conducted using an E. coli AID#172 strain in female NMRI mice (Harlan) that were rendered neutropenic by injecting 0.5 mL cyclophosphamide solution (Apodan®) intraperitoneally for 4 days (~200 mg kg^−1) and 1 day (~100 mg kg^−1) prior to inoculation of infection. At time −1 h, mice were inoculated intraperitoneally with 0.5 mL of 2 × 10^6 CFU mL^−1 E. coli AID#172 suspension in the lateral lower quadrant of the abdomen. […] CFU counts were determined from blood and peritoneal fluid at 0 and 5 h after treatment. The mice were anesthetized with Zoletil® and blood was collected by axillary cut down. The mice were killed by cervical dislocation, a total of 2 mL sterile saline was injected i.p. and the abdomen gently massaged before it was opened, fluid sampled with a pipette, and collected for CFU counts on agar.

[1] = SPR binding to model membrane lipids; design: species or system E. coli; conditions: for Binding to DMPC with lipid A versus DMPC alone (SPR): 1 µM and 10 µM, 100 × RU/MW at t = 180 s, n = 3, Student's t-test; for SPR response, Difference (Mean1 - Mean2): DMPC minus 10% lipid A-DMPC, multiple t-tests; for SPR response, Mean2 (10% lipid A-DMPC): mean of n = 3
Procedure: (§1) SPR experiments were performed on a Biacore T200 using an L1 sensor chip as previously described. Small unilamellar vesicles (SUVs) were prepared in PBS by sonication and extrusion. Lipids were dissolved in ethanol-free chloroform in 25 mL round-bottom flasks. 10% (mol/mol) of E. coli lipid A, diphosphoryl (Sigma-Aldrich, Cat # L5399) was added into 1,2-dimyristoyl-sn-glycero-3-phosphocholine (DMPC) (Auspep, Cat # 850345P) solution to make lipid A–DMPC mixtures, which were then deposited as a thin film by removal of the solvent (chloroform) under reduced pressure on a rotary evaporator and dried under high vacuum for at least 2 h. PBS was then added into each flask to give a 1 mM (DMPC) suspension, which was sonicated 5 min for five times. […] The SUVs were then injected into the flow cells of the L1 sensor chip for 2000 s at a low flow rate of 2 μL min^−1 to form a bilayer membrane model on the chip surface. Then, a series of peptide solutions (30–0.33 μM in 3-fold dilution), was injected across the flow cells at a flow rate of 30 μL min^−1, having an injection phase of 180 s, and a dissociation phase of 300 s. The binding responses (RU) were normalized by molecular weight (MW) of each peptide. The equation 100 × RU/MW was used for normalization.

[2] = SPR binding to model membrane lipids; design: unit: 100 × RU/MW; conditions: mean of n = 3
Procedure: as §1

in vivo [3] = conditions: mouse, ip, Cross species PK, concentration (Fig 6 source data)
E. coli = E. coli MDR/ESBL; after 20 passages + 3 drug-free passages
in vivo [4] = conditions: both, mouse, plasma, inhaled or intranasal; for AUC(0-t) / Cmax: Plasma, mice
B. subtilis = experiment: microbe, parasite or virus in culture; conditions: for MIC: Bacillus subtilis
Outline: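 MICs were scored by eye after 18-20 h static incubation at 37 °C, with bacteria at 5 × 10^5 CFU mL^−1 in MHB. Peptides were serially diluted 2-fold over 12 points, top 128 or 64 μg mL^−1. CAMHB (CLSI) and 1% agarose-MHB variants were also run, at least six replicates.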

[5] = Dose range finding & MTD iv toxicity
[6] = AA139 3.75 mg kg-1, Meropenem 40 mg kg-1, Dunnett's multiple comparisons test
[7] = MDR E. coli AID #172, AA139 3.75 mg kg-1, Meropenem 40 mg kg-1, mean of n = 3
[8] = 5 mg kg-1/day, Day 1, 5 mg kg-1/day, 2 hour daily inhalation
[9] = 5 mg kg-1/day, Day 7, 5 mg kg-1/day, inhalation
[10] = 40 mg kg-1/day, Day 1, 40 mg kg-1/day, inhalation
[11] = cynomolgus monkey, in vivo, iv, 20 mg/kg

Compound: C[C@@H](O)[C@H]1C(=O)N2C(C(=O)O)=C(S[C@@H]3CN[C@H](C(=O)N(C)C)C3)[C@H](C)[C@H]12 [Meropenem, meropenem, reference compound]
- Change of CFU levels in peritoneal fluid and blood vs vehicle (E. coli AID#172; 40 mg kg^−1 i.v., not statistically significant): slight reduction
- Blood 5hr, Mean Diff. vehicle vs. treatment (E. coli AID#172; [6]): 0.6733
- PF 5hr, Mean Diff. vehicle vs. treatment (E. coli AID#172; [6]): 0.08333
- Blood 5hr bacterial load, Mean (E. coli AID#172; [7]): 3.163
- PF 5 hr bacterial load, Mean (E. coli AID#172; [7]): 4.56

Compound: polymyxin B [PolymyxinB, reference compound]
- Binding to DMPC with lipid A versus DMPC alone (SPR) [1]: Significant difference
- SPR response, Difference (Mean1 - Mean2) ([1]; 1uM): -20.0727
- SPR response, Mean2 (10% lipid A-DMPC) ([1]; 1uM): 48.41
- SPR response, Difference (Mean1 - Mean2) ([1]; 10uM): -95.8227
- SPR response, Mean2 (10% lipid A-DMPC) ([1]; 10uM): 222.033
- SPR response, Mean1 (DMPC) ([2]; 1uM): 28.3373
- SPR response, Mean1 (DMPC) ([2]; 10uM): 126.211

Compound: colistin
- Binding to DMPC with lipid A versus DMPC alone (SPR) [1]: Significant difference
- SPR response, Difference (Mean1 - Mean2) ([1]; 1uM): -12.5563
- SPR response, Mean2 (10% lipid A-DMPC) ([1]; 1uM): 19.5933
- SPR response, Difference (Mean1 - Mean2) ([1]; 10uM): -66.912
- SPR response, Mean2 (10% lipid A-DMPC) ([1]; 10uM): 125.433
- SPR response, Mean1 (DMPC) ([2]; 1uM): 7.037
- SPR response, Mean1 (DMPC) ([2]; 10uM): 58.5213

Compound: CC(C)[C@@H]1NC(=O)[C@H](Cc2ccc(O)cc2)NC(=O)[C@H](Cc2c[nH]c3ccccc23)NC(=O)[C@@H](NC(=O)[C@H](Cc2ccccc2)NC(=O)CN)CSSC[C@@H](C(=O)N[C@@H](CC(N)=O)C(=O)O)NC(=O)[C@H](CCCNC(=N)N)NC(=O)[C@H](CCCNC(=N)N)NC(=O)[C@H](Cc2ccc(O)cc2)NC(=O)[C@@H]2CSSC[C@H](NC1=O)C(=O)N[C@@H](C)C(=O)N[C@@H](CCCNC(=N)N)C(=O)N[C@@H](CCCNC(=N)N)C(=O)N[C@@H](CC(N)=O)C(=O)NCC(=O)N[C@@H](C)C(=O)N[C@@H](CCCNC(=N)N)C(=O)N[C@@H](C(C)C)C(=O)N2 [AA139] (HELM PEPTIDE1{G.F.C.W.Y.V.C.A.R.R.N.G.A.R.V.C.Y.R.R.C.N}$PEPTIDE1,PEPTIDE1,3:R3-20:R3|PEPTIDE1,PEPTIDE1,7:R3-16:R3$$$V2.0)
- level at 1 h (in vivo [3]; replicate 1): 5200 ng/mL
- level at 1 h (in vivo [3]; replicate 2): 5250 ng/mL
- level at 1 h (in vivo [3]; replicate 3): 5230 ng/mL
- level at 2 h (in vivo [3]; replicate 1): 4240 ng/mL
- level at 2 h (in vivo [3]; replicate 2): 4550 ng/mL
- level at 2 h (in vivo [3]; replicate 3): 4140 ng/mL
- level at 4 h (in vivo [3]; replicate 1): 1820 ng/mL
- level at 4 h (in vivo [3]; replicate 2): 1560 ng/mL
- level at 4 h (in vivo [3]; replicate 3): 1370 ng/mL
- level at 8 h (in vivo [3]; replicate 1): 570 ng/mL
- level at 8 h (in vivo [3]; replicate 2): 472 ng/mL
- level at 8 h (in vivo [3]; replicate 3): 682 ng/mL
- Final MIC (E. coli): 1 µg/mL
- Tmax (in vivo [4]; 5 mg kg-1/day): 18 min
- AUC(0-t) (in vivo [4]; [8]): 262 ng·h/mL
- AUC(0-t) (in vivo [4]; [9]): 85 ng·h/mL
- Cmax (in vivo [4]; [8]): 122 ng/mL
- Cmax (in vivo [4]; [9]): 64 ng/mL
- Tmax (in vivo [4]; 20 mg kg-1/day): 18 min
- Cmax (in vivo [4]; 20 mg kg-1/day, Day 1, 20 mg kg-1/day, inhalation): 952 ng/mL
- Cmax (in vivo [4]; 20 mg kg-1/day, Day 7, 20 mg kg-1/day, inhalation): 467 ng/mL
- Tmax (in vivo [4]; 40 mg kg-1/day): 18 min
- AUC(0-t) (in vivo [4]; [10]): 4540 ng·h/mL
- Cmax (in vivo [4]; [10]): 2460 ng/mL
- BMD MIC (B. subtilis): 2 µg/mL
- ED50 in blood (E. coli AID#172; mouse, in vivo, iv): 1.55 mg/kg
- ED50 in peritoneal fluid (E. coli AID#172; mouse, in vivo, iv): 1.85 mg/kg
- AUC(0-inf) [5, 11]: 80300 ng·h/mL
- Cmax [5, 11]: 15800 ng/mL
- NOAEL in monkeys ([5]; i.v. over 2 h QD or BID): 15 mg kg^−1 per day

Compound: CNC(C)C1CCC(N)C(OC2C(N)CC(N)C(OC3OCC(C)(O)C(NC)C3O)C2O)O1 (stereo not drawn) [Gentamicin, gentamicin, reference compound]
- MIC (B. subtilis; ATCC6051 / NRS744, read-out: BMD MIC): 0.25 µg/mL (≈ 0.523 µM)
- MIC (B. subtilis; ATCC6633 / NRS231, read-out: BMD MIC): 0.5 µg/mL (≈ 1.05 µM)
